ChEMBL document CHEMBL3301361, “Experimental in vitro DMPK and physicochemical data on a set of publicly disclosed compounds”

test: physchem; conditions: octan-1-ol/water, pH 7.4

Compound | logD
CCCCCCCCCC(=O)N[C@@H](Cc1c[nH]c2ccccc12)C(=O)N[C@H](CC(N)=O)C(=O)N[C@@H](CC(=O)O)C(=O)N[C@@H]1C(=O)NCC(=O)N[C@@H](CCCN)C(=O)N[C@@H](CC(=O)O)C(=O)N[C@H](C)C(=O)N[C@@H](CC(=O)O)C(=O)NCC(=O)N[C@H](CO)C(=O)N[C@@H]([C@H](C)CC(=O)O)C(=O)N[C@@H](CC(=O)c2ccccc2N)C(=O)O[C@@H]1C | -0.94
O=C1COc2ccc(CNC3CCN(CCN4C(=O)COc5ccc(O)cc54)CC3)nc2N1 | 0.52
CCOC(=O)c1c(C)n(Cc2ccco2)c2ccc(O)cc12 | 3.5
CC(C)(C)c1ccc(C2=NC(=O)C(CC(=O)O)S2)cc1 (configuration not stated) | -0.1
CCCCC1(CC)C(=O)NC(=O)NC1=O [BUTETHAL] | 1.5
CCC1(c2ccccc2)C(=O)NC(=O)NC1=O [PHENOBARBITAL] | 0.05
CN1CCC(C#N)(c2cccc3ccccc23)CC1 | 2.73
NC(=O)c1cccc(O[C@H]2C[C@H]3CC[C@@H](C2)N3Cc2ccccc2)c1 | 1.61
CC(O)c1ccc2c(c1)N(CCN1CCC(NCc3ccc4c(n3)NC(=O)CO4)CC1)C(=O)CO2 (configuration not stated) | 0.25

same assay, conditions: octan-1-ol/water, pH 7.4, LogD7.4

Compound | logD
O=C(COCc1ccccc1)Nc1ccc2c(c1)C(=O)C(=O)c1ccccc1-2 | 3.21
O=C1CCOc2nc(/C=C/c3ccccc3)ccc21 | 3.2
N#Cc1cc(O)cc2nc(-c3ccc(O)cc3)oc12 | 3.6
c1ccc(CNc2nc3ccccc3[nH]2)cc1 | 2.76
O=c1c(-c2ccc(O)cc2)coc2cc(O)cc(O)c12 [GENISTEIN] | 3.06
OCCN1CC=CC[C@H](c2ccc(Cl)c(Cl)c2)C1 | 2.37
CNc1c(Br)cnc2nc(-c3ccc(OCCCN4CCOCC4)cc3)[nH]c12 | 2.96
O=C1Nc2ccc(S(=O)(=O)N3CCC[C@H]3COc3ccccc3)cc2C1=O | 2.7
COCCC(=O)N(C)c1ccc(Nc2ncc3cc(-c4ccncc4)ccc3n2)cc1 | 3.23
Cc1ccc(NC(=O)c2cccc(N(C)C)c2)cc1NC(=O)c1ccc(O)cc1 | 2.65
Cc1cccc(C(N)=O)c1NC(=O)c1ccccc1 | 1.09
O=S(=O)(NCCNc1ncccn1)c1cccc2cnccc12 | 0.61
Cc1ccc(S(=O)(=O)Nc2ccc(/C=C/C(=O)Nc3ccccc3N)cc2)cc1 | 2.82
CN1CCN(c2nc(NCCNc3ccc([N+](=O)[O-])cc3)c3ccccc3n2)CC1 | 2.91
CCC(c1nc2ccsc2c(=O)n1Cc1ccccc1)N(CC1CCNCC1)C(=O)c1ccc(C)cc1 (configuration not stated) | 1.33
CC[C@H]1OC(=O)[C@H](C)[C@@H](O[C@H]2C[C@@](C)(OC)[C@@H](O)[C@H](C)O2)[C@H](C)[C@@H](O[C@@H]2O[C@H](C)C[C@H](N(C)C)[C@H]2O)[C@](C)(O)C[C@@H](C)/C(=N\OCOCCOC)[C@H](C)[C@@H](O)[C@]1(C)O [ROXITHROMYCIN] | 1.8
C[C@H]1O[C@@H](n2cnc3c(N)nc(Oc4ccccc4)nc32)[C@H](O)[C@@H]1O | 1.05
Cc1ccc(COC(=O)N2CC[C@H](CNc3ncccn3)[C@H](F)C2)cc1 [RISLENEMDAZ] | 3.21
Cc1ccc(NC(=O)c2cccc(C(F)(F)F)c2)cc1NC(=O)c1cccnc1 | 3.11
CN(C)C(=O)C1(N2CCCCC2=O)CCN(CC[C@H](CN(C)C(=O)c2cc(C#N)cc3ccccc23)c2ccc(Cl)c(Cl)c2)CC1 | 2.52
COc1cc(C(=O)NS(=O)(=O)c2ccccc2)ccc1Cn1ccc2ccc(C(=O)NCC3CCCC3)cc21 | 1.93
N#Cc1cccc(C(=O)Nc2cc(-c3ccccc3)nn2-c2ccccc2)c1 | 3.82
Fc1cccc(-c2cncc(CNCC3CC3)n2)c1F | 1.82
Fc1cc2[nH]cnc2cc1Cl | 2.35

Compound | logD
CCCCCC[C@H]1OC(=O)CNC(=O)[C@@H]([C@H](C)O)NC(=O)[C@H](CO)NC(=O)[C@H]([C@H](C)CC)NC(=O)[C@H](CC(C)C)N(C)C(=O)[C@@H]1C | 3.2
NC1(C(=O)NC(CS(N)(=O)=O)c2ccc(Cl)cc2)CCN(c2ncnc3[nH]ccc23)CC1 (configuration not stated) | 2.2
COc1ncnc(NS(=O)(=O)c2ccc(N)cc2)c1OC [SULFADOXINE] | -0.73
CC(=O)Nc1ccc(S(=O)(=O)Nc2ccccn2)cc1 | 0.24
CC[C@H](NC(=O)c1c(S(C)(=O)=O)c(-c2ccccc2)nc2ccccc12)c1ccccc1 | 3.17
CSc1ncccc1C(=O)NCc1ccc(C)cc1 | 2.71
CCN(CC)S(=O)(=O)c1ccc(NC(=O)C(C)(O)C(F)(F)F)cc1 (configuration not stated) | 2.63
CCCCN1Cc2c(nc3cc(-c4ccco4)nn3c2O)C1=O | 0.8
CC1=C(C2=C(C)C(=O)c3c(cc(O)c(O)c3Cc3ccccc3)C2=O)C(=O)c2cc(O)c(O)c(Cc3ccccc3)c2C1=O | 2.73
Cc1nc2nc(NC(=O)c3ccc(F)cc3)nn2c(O)c1Cc1ccccc1 | 2.2
Cc1nc(CS(=O)(=O)c2ccccc2)cc(N2CCOCC2)n1 | 1.07
Cc1ncc(-c2nc(Nc3ccc(C(=O)N4CC[C@@H](N(C)C)C4)cc3)ncc2F)n1C(C)C | 2.36
Fc1ccc(C2CCN(C(=S)COCc3ccncc3)CC2)c(Cl)c1 | 4.23
Cc1ccsc1Cn1[nH]c(=O)c2[nH]c3cc(Cl)ccc3c(=O)c2c1=O | 1.15
CN(C)CC(O)COc1ccc(Nc2nccc(Nc3cc(Cl)ccc3Cl)n2)cc1 (configuration not stated) | 2.9
O=c1cc(N2CCOCC2)oc2c(-c3cccc4c5c(sc34)CCCC5)cccc12 | 4.1
CN(C)c1cccc2c(S(=O)(=O)Nc3cnccn3)cccc12 | 0.9
C(=C\c1c(-c2ccccc2)nc2sccn12)/c1ccncn1 | 3.4
Oc1ccc(-c2nc3ccccc3nc2-c2ccc(O)cc2)cc1 | 2.7
Nc1nc2cc3c(cc2s1)CCN(Cc1cnc[nH]1)CC3 | -0.12
Cc1ccc(-c2cn(C)c(C)n2)cc1NC(=O)c1ccc(OCc2ccccn2)cc1 | 2.71
COc1ccc(C(=O)Nc2cc(NC(=O)c3cccc(N(C)C)c3)ccc2C)cc1 | 3.17
CCC(c1nc2ccsc2c(=O)n1Cc1ccccc1)N(CCCN)C(=O)c1ccc(C)nc1 (configuration not stated) | 2.56
NC(=O)C1CCN(CC(=O)Nc2ccc3c(c2)OCO3)CC1 | 0.4

Compound | logD
CC(C)C(NC(=O)Cn1c(-c2ccccc2)ccc(N)c1=O)C(=O)C(F)(F)F (configuration not stated) | 1.74
COc1ccc(-c2cc(C(F)(F)F)ccc2OCC(=O)O)cc1 | 0.29
Cc1ccc(C(=O)C(C)CN2CCCCC2)cc1 (configuration not stated) [TOLPERISONE] | 1.65
Cc1oc(-c2ccc(Cl)cc2)cc1C(=O)O | 1.67
COc1ncc(-c2cccc3c2C[C@H](NC(=O)c2ccc(OCC(F)(F)F)nc2)CO3)cn1 | 4.3
CCC(c1nc2ncccc2c(=O)n1Cc1ccccc1)N(CCCN)C(=O)c1ccc(C)cc1 (configuration not stated) | -0.04
COc1cc(N2CCN(C(C)=O)CC2)ccc1Nc1ncc(Cl)c(-c2cnc3cc(C#N)ccn23)n1 | 2.3
Cc1c(-c2ccc(O)cc2)c(=O)oc2cc(O)ccc12 | 2.8
Oc1c(I)cc(I)c2cccnc12 [IODOQUINOL] | 2.19
CCN(CC)S(=O)(=O)c1ccc(NC(=O)[C@@](C)(O)C(F)(F)F)c(Cl)c1 | 3.66
CC[C@H](NC(=O)c1c([S+](C)[O-])c(-c2ccc(F)cc2)nc2ccccc12)c1ccccc1 (some centres not stated) | 3.72
COc1ccccc1-c1coc2cc(O)ccc2c1=O | 2.55
C=CCc1cc(NC(C)=O)ccc1OCCCNC(C)C | -0.01
COc1ccc(C(=O)Nc2cc(NC(=O)c3cccc(N(C)C)c3)ccc2C)cc1OC | 3.12
CC(C)(C)NC(=O)[C@@H]1CN(Cc2cccnc2)CCN1C[C@@H](O)C[C@@H](Cc1ccccc1)C(=O)N[C@H]1c2ccccc2C[C@H]1O | 2.9
CC(C)(CS(=O)(=O)N1CCN(c2ccc(F)cc2)CC1)N(O)C=O | 1.07
NC(=O)Nc1sc(-c2ccc(F)cc2)cc1C(=O)N[C@H]1CCCNC1 | 1.76
O=C1CCCc2nc(C#Cc3ccccc3)ccc21 | 3.53
COc1cc2c(Nc3c(Cl)ccc4c3OCO4)ncnc2cc1OCCCN1CCCCC1 | 2.05
O=c1[nH]c2c(O)ccc([C@@H](O)CNCCCOCCOCCc3cccc4ccccc34)c2s1 | 2.28
C#Cc1cccc(Nc2nc3cc(C(=O)O)ccc3c3cncnc23)c1 | 0.92
N=C(N)NCCC[C@H](NC(=O)COCC(c1ccccc1)c1ccccc1)C(=O)O | 0.18
COc1cc(-c2ccncc2)cc2cnc(Nc3ccc([C@@H](C)NC(C)=O)cc3)nc12 | 2.73
CC(=O)Nc1cc2c(ccn2-c2cc(NC3CC3)n3ncc(C#N)c3n2)cc1C | 2.66

Compound | logD
O=C(NCc1ccncc1)c1ccc(Oc2ccccc2)cc1 | 3.26
Cc1ccc(F)c(Nc2ccnc(Nc3ccc(OCC(O)CN(C)C)cc3)n2)c1 (configuration not stated) | 2.1
O=C(COc1ccc(OCCNCC(O)COc2ccccc2)cc1)NCCO (configuration not stated) | 0.42
N#Cc1ccc(OCC(=O)O)c(-c2ccccc2)c1 | -1.08
COc1cc(F)ccc1-c1cncc(CNC(=O)c2ccccc2)c1 | 3.76
NC(Cc1c[nH]c2ccccc12)C(=O)O (stereo not drawn) [DL-TRYPTOPHAN] | -1.17
Nc1ccc(Cl)c(C(=O)NCC23CC4CC(CC(C4)C2)C3)c1 | 3.45
NC1(C(=O)NC(c2ccc(Cl)cc2)C2CC2)CCN(c2ncnc3[nH]ccc23)CC1 (configuration not stated) | 3.4
CC[C@H](NC(=O)c1c([S+](C)[O-])c(-c2ccccc2)nc2cc(Cl)ccc12)c1ccccc1 (some centres not stated) | 3.07
C=CCNC(=O)c1cc([N+](=O)[O-])cc2c(=O)[nH]c(Nc3ccc(Cl)c(Cl)c3)nc12 | 2.7
CCOc1cc2nnc(C(N)=O)c(Nc3cccc(Cl)c3F)c2cc1N1CCN(C)CC1 | 1.99
NNCCc1ccccc1 [PHENELZINE] | -0.01
N#C/C(=C(/N)Sc1ccc(N)cc1)c1ccccc1C(F)(F)F | 3.3
CCN(C(=O)NCc1ccccc1)C1CCN(CCC(c2ccccc2)c2ccccc2)CC1 | 4
c1ccc(OCC2CNCCO2)cc1 (configuration not stated) | 0.2
CN(C)CC(O)COc1ccc(Nc2cc(Nc3ccc(F)cc3F)ncn2)cc1 (configuration not stated) | 1.48
CN(C)c1ccnc2sc(C(=O)NCc3ccccc3)c(N)c12 | 3.62
Cc1sc(CN2CCNCC2)cc1C(=O)NCC12CC3CC(CC(C3)C1)C2 | 2.55
CN(C/C=C/C#CC(C)(C)C)Cc1cccc2ccccc12 [TERBINAFINE] | 2.83
Fc1ccc(-c2ncn(C3CCNCC3)c2-c2ccncc2)cc1 [VK-19911] | 0.3
O=C(O)c1ccc(-c2nnn(Cc3ccccc3F)n2)cc1 | 0.3
